# US20250353891A1 (MEDIMMUNE LIMITED, priority 2022, published 2025)
# Several values for one entry are separate records, joined by “and”; a condition that tells them apart may be missing. Equal entries are not always repeated. Starred links: 1 amine or outer side, 2 acyl side, 3 side chain; linkers in the order of their positions; H or OH if unused. Non-standard residues stand in square brackets, D forms with d. Residues, ends and D or L forms follow the SMILES beside them. Groups on a side chain read outwards from the residue. *: point of attachment. C20 diacid = O=C(O)CCCCCCCCCCCCCCCCCCC(=O)*; C18 diacid = O=C(O)CCCCCCCCCCCCCCCCC(=O)*; γGlu = O=C(O)[C@H](CCC(=O)[*:2])N[*:1]; αMeF = C[C@](N)(Cc1ccccc1)C(=O)O; AEEA = NCCOCCOCC(=O)O; Aib = CC(C)(N)C(=O)O
# What was measured:
# [1] = molecular target: human glucagon receptor (hGCGR) (Homo sapiens, UniProt P47871); assay: cAMP production (HTRF) in CHO cells expressing hGCGR; type: cell-based; parameters: expressed in transfected cells; details: Table 6, peptides modified at position 17; cAMP in CHO hGCGR cells; geometric mean; read-out: hGluc-R EC50
# Summary of the method: (§1)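 Cells were resuspended in assay buffer at batch-optimized density, typically 1×10^5 cells/mL for hGLP-1R and 2×10^5 cells/mL for hGCGR. After 30 min incubation at room temperature with compound, cAMP was measured by two-step HTRF. EC50 values came from 4-parameter logistic fits of % Delta F.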
# [2] = molecular target: human GLP-1 receptor (hGLP-1R) (Homo sapiens, UniProt P43220); assay: cAMP production (HTRF) in CHO cells expressing hGLP-1R; type: cell-based; parameters: expressed in transfected cells; details: for EC50: Table 6, peptides modified at position 17, cAMP in CHO hGLP-1R cells, geometric mean, read-out: hGLP-1R EC50; for % Relative Potency Ratio: Table 6, % GLP-1R activity relative to GLP-1 / % GlucR activity relative to glucagon
# Summary of the method: as §1
# human GLP-1 receptor (hGLP-1R), sequence (P43220 24-463): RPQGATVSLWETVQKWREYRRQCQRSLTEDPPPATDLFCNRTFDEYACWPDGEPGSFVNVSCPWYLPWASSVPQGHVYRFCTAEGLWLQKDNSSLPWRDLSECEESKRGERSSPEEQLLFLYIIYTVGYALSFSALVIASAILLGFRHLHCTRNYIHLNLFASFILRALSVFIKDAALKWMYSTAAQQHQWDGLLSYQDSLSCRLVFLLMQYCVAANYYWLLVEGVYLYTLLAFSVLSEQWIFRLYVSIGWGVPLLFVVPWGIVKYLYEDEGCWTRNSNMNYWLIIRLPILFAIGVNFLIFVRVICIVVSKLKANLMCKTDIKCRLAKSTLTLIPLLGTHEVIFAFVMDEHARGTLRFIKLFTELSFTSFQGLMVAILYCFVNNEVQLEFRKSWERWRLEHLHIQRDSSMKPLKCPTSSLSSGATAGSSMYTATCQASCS
# human glucagon receptor (hGCGR), sequence (P47871 26-477): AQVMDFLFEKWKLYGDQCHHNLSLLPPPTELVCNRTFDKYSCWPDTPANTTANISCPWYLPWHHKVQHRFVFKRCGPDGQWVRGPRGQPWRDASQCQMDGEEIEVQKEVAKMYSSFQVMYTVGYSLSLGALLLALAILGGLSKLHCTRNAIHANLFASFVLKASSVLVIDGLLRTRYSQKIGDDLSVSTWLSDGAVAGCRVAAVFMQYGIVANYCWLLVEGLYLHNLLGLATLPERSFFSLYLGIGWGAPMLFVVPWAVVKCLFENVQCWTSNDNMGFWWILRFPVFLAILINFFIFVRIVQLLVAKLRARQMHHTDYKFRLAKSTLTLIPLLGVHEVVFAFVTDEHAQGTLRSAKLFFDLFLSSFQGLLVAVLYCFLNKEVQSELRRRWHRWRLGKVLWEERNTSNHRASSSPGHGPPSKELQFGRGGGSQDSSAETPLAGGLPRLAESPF
Structure (SMILES),EC50 [1],EC50 [2],% Relative Potency Ratio [2]
CC(C)C[C@H](NC(=O)[C@H](Cc1c[nH]c2ccccc12)NC(=O)[C@H](CCCNC(=N)N)NC(=O)[C@@H](NC(=O)[C@H](Cc1ccccc1)NC(=O)[C@H](CC(=O)O)NC(=O)[C@H](CCC(N)=O)NC(=O)[C@H](C)NC(=O)[C@H](CCCNC(=N)N)NC(=O)[C@H](CCCCNC(=O)COCCOCCNC(=O)COCCOCCNC(=O)CC[C@H](NC(=O)CCCCCCCCCCCCCCCCC(=O)O)C(=O)O)NC(=O)[C@H](CO)NC(=O)[C@H](CCC(=O)O)NC(=O)[C@H](CC(C)C)NC(=O)[C@](C)(Cc1ccccc1)NC(=O)[C@H](CCCCN)NC(=O)[C@H](CO)NC(=O)[C@@H](NC(=O)[C@H](CC(=O)O)NC(=O)[C@H](CO)NC(=O)[C@@H](NC(=O)[C@H](Cc1ccccc1)NC(=O)[C@@H](NC(=O)CNC(=O)[C@H](CCC(N)=O)NC(=O)C(C)(C)NC(=O)[C@@H](N)Cc1c[nH]cn1)[C@@H](C)O)[C@@H](C)O)C(C)C)C(C)C)C(=O)N[C@@H](CC(C)C)C(=O)N[C@@H](CCC(=O)O)C(=O)NC(C)(C)C(=O)NCC(=O)O [Peptide 160] (H-H[Aib]QGTFTSDVSK[αMeF]LESK([AEEA-AEEA-γGlu-C18 diacid])RAQDFVRWLLE[Aib]G-OH),0.417 nM,0.0552 nM,14.9
CC(C)C[C@H](NC(=O)[C@H](Cc1c[nH]c2ccccc12)NC(=O)[C@H](C)NC(=O)[C@@H](NC(=O)[C@H](Cc1ccccc1)NC(=O)[C@H](CC(=O)O)NC(=O)[C@H](CCCNC(=N)N)NC(=O)[C@H](C)NC(=O)[C@H](CCCNC(=N)N)NC(=O)[C@H](CCCCNC(=O)COCCOCCNC(=O)COCCOCCNC(=O)CC[C@H](NC(=O)CCCCCCCCCCCCCCCCC(=O)O)C(=O)O)NC(=O)[C@H](C)NC(=O)[C@H](CCC(=O)O)NC(=O)[C@H](CC(C)C)NC(=O)[C@](C)(Cc1ccccc1)NC(=O)[C@H](CCCCN)NC(=O)[C@H](CO)NC(=O)[C@@H](NC(=O)[C@H](CC(=O)O)NC(=O)[C@H](CO)NC(=O)[C@@H](NC(=O)[C@H](Cc1ccccc1)NC(=O)[C@@H](NC(=O)CNC(=O)[C@H](CCC(N)=O)NC(=O)C(C)(C)NC(=O)[C@@H](N)Cc1c[nH]cn1)[C@@H](C)O)[C@@H](C)O)C(C)C)C(C)C)C(=O)N[C@@H](CC(C)C)C(=O)N[C@@H](CCC(=O)O)C(=O)NC(C)(C)C(=O)NCC(=O)O [Peptide 161] (H-H[Aib]QGTFTSDVSK[αMeF]LEAK([AEEA-AEEA-γGlu-C18 diacid])RARDFVAWLLE[Aib]G-OH),0.188 nM and 1.03 nM,0.0172 nM and 0.0509 nM,21.6 and 40.0
CC[C@H](C)[C@H](NC(=O)[C@H](Cc1c[nH]c2ccccc12)NC(=O)[C@H](CCCNC(=N)N)NC(=O)[C@@H](NC(=O)[C@H](Cc1ccccc1)NC(=O)[C@H](CC(=O)O)NC(=O)[C@H](CCC(N)=O)NC(=O)[C@H](C)NC(=O)[C@H](CCCNC(=N)N)NC(=O)[C@H](CCCCNC(=O)COCCOCCNC(=O)COCCOCCNC(=O)CC[C@H](NC(=O)CCCCCCCCCCCCCCCCC(=O)O)C(=O)O)NC(=O)[C@H](CO)NC(=O)[C@H](CC(=O)O)NC(=O)[C@H](CC(C)C)NC(=O)[C@](C)(Cc1ccccc1)NC(=O)[C@H](CCCCN)NC(=O)[C@H](CO)NC(=O)[C@@H](NC(=O)[C@H](CC(=O)O)NC(=O)[C@H](CO)NC(=O)[C@@H](NC(=O)[C@H](Cc1ccccc1)NC(=O)[C@@H](NC(=O)CNC(=O)[C@H](CCC(N)=O)NC(=O)C(C)(C)NC(=O)[C@@H](N)Cc1c[nH]cn1)[C@@H](C)O)[C@@H](C)O)C(C)C)C(C)C)C(=O)N[C@@H](C)C(=O)NC(C)(C)C(=O)N[C@H](C(=O)N[C@@H](CCC(=O)O)C(=O)O)[C@@H](C)O [Peptide 162] (H-H[Aib]QGTFTSDVSK[αMeF]LDSK([AEEA-AEEA-γGlu-C18 diacid])RAQDFVRWIA[Aib]TE-OH; N-terminus assumed),1.03 nM,0.0596 nM,34.1

# The next lines start with the values.
EC50 [1],EC50 [2],% Relative Potency Ratio [2],Structure (SMILES)
0.0204 nM,0.0119 nM,3.4,CC(C)C[C@H](NC(=O)[C@H](Cc1c[nH]c2ccccc12)NC(=O)[C@H](CCCNC(=N)N)NC(=O)[C@@H](NC(=O)[C@H](Cc1ccccc1)NC(=O)[C@H](CC(=O)O)NC(=O)[C@H](CCC(N)=O)NC(=O)[C@H](C)NC(=O)[C@H](CCCNC(=N)N)NC(=O)[C@H](CCCCNC(=O)COCCOCCNC(=O)COCCOCCNC(=O)CC[C@H](NC(=O)CCCCCCCCCCCCCCCCC(=O)O)C(=O)O)NC(=O)[C@H](CO)NC(=O)[C@H](CC(=O)O)NC(=O)[C@H](CC(C)C)NC(=O)[C@](C)(Cc1ccccc1)NC(=O)[C@H](CCCCN)NC(=O)[C@H](CO)NC(=O)[C@@H](NC(=O)[C@H](CC(=O)O)NC(=O)[C@H](CO)NC(=O)[C@@H](NC(=O)[C@H](Cc1ccccc1)NC(=O)[C@@H](NC(=O)CNC(=O)[C@H](CCC(N)=O)NC(=O)C(C)(C)NC(=O)[C@@H](N)Cc1c[nH]cn1)[C@@H](C)O)[C@@H](C)O)C(C)C)C(C)C)C(=O)N[C@@H](CC(C)C)C(=O)NC(C)(C)C(=O)N[C@@H](CCC(=O)O)C(=O)O [Peptide 152] (H-H[Aib]QGTFTSDVSK[αMeF]LDSK([AEEA-AEEA-γGlu-C18 diacid])RAQDFVRWLL[Aib]E-OH; N-terminus assumed)
0.099 nM,0.0412 nM,4.8,CC(C)C[C@H](NC(=O)[C@H](Cc1c[nH]c2ccccc12)NC(=O)[C@H](CCCNC(=N)N)NC(=O)[C@@H](NC(=O)[C@H](Cc1ccccc1)NC(=O)[C@H](CC(=O)O)NC(=O)[C@H](CCC(N)=O)NC(=O)[C@H](C)NC(=O)[C@H](CCCNC(=N)N)NC(=O)[C@H](CCCCNC(=O)COCCOCCNC(=O)COCCOCCNC(=O)CC[C@H](NC(=O)CCCCCCCCCCCCCCCCCCC(=O)O)C(=O)O)NC(=O)[C@H](CO)NC(=O)[C@H](CC(=O)O)NC(=O)[C@H](CC(C)C)NC(=O)[C@](C)(Cc1ccccc1)NC(=O)[C@H](CCCCN)NC(=O)[C@H](CO)NC(=O)[C@@H](NC(=O)[C@H](CC(=O)O)NC(=O)[C@H](CO)NC(=O)[C@@H](NC(=O)[C@H](Cc1ccccc1)NC(=O)[C@@H](NC(=O)CNC(=O)[C@H](CCC(N)=O)NC(=O)C(C)(C)NC(=O)[C@@H](N)Cc1c[nH]cn1)[C@@H](C)O)[C@@H](C)O)C(C)C)C(C)C)C(=O)N[C@@H](CC(C)C)C(=O)NC(C)(C)C(=O)N[C@@H](CCC(=O)O)C(=O)O [Peptide 153] (H-H[Aib]QGTFTSDVSK[αMeF]LDSK([AEEA-AEEA-γGlu-C20 diacid])RAQDFVRWLL[Aib]E-OH; N-terminus assumed)
0.333 nM,0.304 nM,2.2,CC(C)C[C@H](NC(=O)[C@H](Cc1c[nH]c2ccccc12)NC(=O)[C@H](CCCNC(=N)N)NC(=O)[C@@H](NC(=O)[C@H](Cc1ccccc1)NC(=O)[C@H](CC(=O)O)NC(=O)[C@H](CCC(N)=O)NC(=O)[C@H](C)NC(=O)[C@H](CCCNC(=N)N)NC(=O)[C@H](CCCCNC(=O)COCCOCCNC(=O)COCCOCCNC(=O)CC[C@H](NC(=O)CCCCCCCCCCCCCCCCCCC(=O)O)C(=O)O)NC(=O)[C@H](CO)NC(=O)[C@H](CC(=O)O)NC(=O)[C@H](CC(C)C)NC(=O)[C@](C)(Cc1ccccc1)NC(=O)[C@H](CCCCN)NC(=O)[C@H](CO)NC(=O)[C@@H](NC(=O)[C@H](CC(=O)O)NC(=O)[C@H](CO)NC(=O)[C@@H](NC(=O)[C@H](Cc1ccccc1)NC(=O)[C@@H](NC(=O)CNC(=O)[C@H](CCC(N)=O)NC(=O)C(C)(C)NC(=O)[C@@H](N)Cc1c[nH]cn1)[C@@H](C)O)[C@@H](C)O)C(C)C)C(C)C)C(=O)N[C@@H](CC(C)C)C(=O)N[C@@H](CCC(=O)O)C(=O)NC(C)(C)C(=O)NCC(=O)O [Peptide 158] (H-H[Aib]QGTFTSDVSK[αMeF]LDSK([AEEA-AEEA-γGlu-C20 diacid])RAQDFVRWLLE[Aib]G-OH; N-terminus assumed)
0.145 nM,0.145 nM,2.0,CC(C)C[C@H](NC(=O)[C@H](Cc1c[nH]c2ccccc12)NC(=O)[C@H](CCCNC(=N)N)NC(=O)[C@@H](NC(=O)[C@H](Cc1ccccc1)NC(=O)[C@H](CC(=O)O)NC(=O)[C@H](CCC(N)=O)NC(=O)[C@H](C)NC(=O)[C@H](CCCNC(=N)N)NC(=O)[C@H](CCCCNC(=O)COCCOCCNC(=O)COCCOCCNC(=O)CC[C@H](NC(=O)CCCCCCCCCCCCCCCCCCC(=O)O)C(=O)O)NC(=O)[C@@H](NC(=O)[C@H](CC(=O)O)NC(=O)[C@H](CC(C)C)NC(=O)[C@](C)(Cc1ccccc1)NC(=O)[C@H](CCCCN)NC(=O)[C@H](CO)NC(=O)[C@@H](NC(=O)[C@H](CC(=O)O)NC(=O)[C@H](CO)NC(=O)[C@@H](NC(=O)[C@H](Cc1ccccc1)NC(=O)[C@@H](NC(=O)CNC(=O)[C@H](CCC(N)=O)NC(=O)C(C)(C)NC(=O)[C@@H](N)Cc1c[nH]cn1)[C@@H](C)O)[C@@H](C)O)C(C)C)[C@@H](C)O)C(C)C)C(=O)N[C@@H](CC(C)C)C(=O)N[C@@H](CCC(=O)O)C(=O)NC(C)(C)C(=O)NCC(=O)O [Peptide 159]
0.144 nM,0.0902 nM,3.2,CC(C)C[C@H](NC(=O)[C@H](Cc1c[nH]c2ccccc12)NC(=O)[C@H](CCCNC(=N)N)NC(=O)[C@@H](NC(=O)[C@H](Cc1ccccc1)NC(=O)[C@H](CC(=O)O)NC(=O)[C@H](CCC(N)=O)NC(=O)[C@H](C)NC(=O)[C@H](CCCNC(=N)N)NC(=O)[C@H](CCCCNC(=O)COCCOCCNC(=O)COCCOCCNC(=O)CC[C@H](NC(=O)CCCCCCCCCCCCCCCCC(=O)O)C(=O)O)NC(=O)[C@H](CO)NC(=O)[C@H](CC(=O)O)NC(=O)[C@H](CC(C)C)NC(=O)[C@](C)(Cc1ccccc1)NC(=O)[C@H](CCCCN)NC(=O)[C@H](CO)NC(=O)[C@@H](NC(=O)[C@H](CC(=O)O)NC(=O)[C@H](CO)NC(=O)[C@@H](NC(=O)[C@H](Cc1ccccc1)NC(=O)[C@@H](NC(=O)CNC(=O)[C@H](CCC(N)=O)NC(=O)C(C)(C)NC(=O)[C@@H](N)Cc1c[nH]cn1)[C@@H](C)O)[C@@H](C)O)C(C)C)C(C)C)C(=O)N[C@@H](CC(C)C)C(=O)N[C@@H](CCC(=O)O)C(=O)NC(C)(C)C(=O)N[C@@H](C)C(=O)O [Peptide 163] (H-H[Aib]QGTFTSDVSK[αMeF]LDSK([AEEA-AEEA-γGlu-C18 diacid])RAQDFVRWLLE[Aib]A-OH; N-terminus assumed)
